Laboratory results reported in patent US10800816B2 (Baxalta GmbH, priority 2012, dated 2020).
“Also recorded” adds a separate entry of the source. Where a SMILES comes first, the peptide text is derived from it. Bridges are numbered along the chain shown (N, C = ends). [ ]: non-standard residue; d: D form. The star is where a group is joined. Tle = CC(C)(C)[C@H](N)C(=O)O; Hexanoyl = CCCCCC(=O)*; Aib = CC(C)(N)C(=O)O; Acm = CC(=O)NC*; Sar = CNCC(=O)O

Assays:
[1] = system: FVIII-inhibited whole blood; test: Rotation thromboelastography (ROTEM) in whole blood; set-up: species or system human; details: Hem A / FVIII-inhibited human whole blood
Description: Continuous visco-elastic assessment of human whole blood clot formation and firmness was performed by rotation thromboelastography with whole blood preparations in the presence or absence of peptides. […] Test samples were prepared by dissolving quantities of peptides in either DMSO or HEPES buffered saline (with or without 0.1% Tween 80).
Recordings were made using a ROTEM thromboelastography coagulation analyzer (Pentapharm, Munich, Germany) at 37° C. Briefly, blood is added into a disposable cuvette in a heated cuvette holder. A disposable pin (sensor) is fixed on the tip of a rotating axis. The axis is guided by a high precision ball bearing system and rotates back and forth. The axis is connected with a spring for the measurement of elasticity. The exact position of the axis is detected by the reflection of light on a small mirror on the axis. The loss of elasticity when the sample clots leads to a change in the rotation of the axis. The data obtained are computer analyzed and visualized in a thromboelastogram. […] An elasticity of approximately zero is observed before clot formation begins. Mirror image traces above and below the zero line indicate the effect of clot formation on the rotation of the axis.
The analytical set-up was as follows: to 20 μL of test sample or control, 300 μL of pre-warmed (37° C.) CTI treated citrated whole blood was added, followed by 20 μL of a 1:15 dilution of TF PRP reagent containing recombinant human tissue factor (rTF, 3 pM) (TS40, Thrombinoscope BV, Maastricht, The Netherlands). Coagulation was initiated by the addition of 20 μ200 mM CaCl2 (star-TEM®, Pentapharm, Munich, Germany) and recordings were allowed to proceed for at least 120 min. The final concentration of rTF in the assay was 11 or 44 fM.
The thromboelastographic parameters of clotting time (CT), clot formation time (CFT) and maximum clot firmness (MCF) were recorded in accordance with the manufacturer's instructions. CT is defined as the time from the start of measurement to the start of clot formation. CFT is defined as the time from the start of clot formation until an amplitude of 20 mm is reached. MCF is the maximum difference in amplitude between the two traces during the assay. The first derivative of the data of the thromboelastogram are plotted to obtain a graph of velocity (mm/s) against time (s). From this graph, the maximum velocity (maxV) is determined. The time at which the maximum velocity is obtained (maxV-t) is also determined.
This example describes a method for assessing clot formation in whole blood using rotation thromboelastography (ROTEM). The assay was performed as described in Example 8. The analytical set-up was as follows: 300 μL of pre-warmed (37° C.) CTI treated citrated whole blood was added to a peptide sample (10, 100, 1000 nM final assay concentration) or a control, followed by addition of a 1:15 dilution of TF PRP reagent containing recombinant human tissue factor (rTF, 3 pM) (TS40, Thrombinoscope BV, Maastricht, The Netherlands). In certain experiments, exogenous full length TFPI (flTFPI) at final concentrations of 2 or 10 nM was added to simulate flTFPI plasma levels of up to 50-fold over normal. Coagulation was initiated by the addition of 20 μL 200 mM CaCl2 (star-TEM®, Pentapharm, Munich, Germany) and recordings were allowed to proceed for at least 120 min. The final concentration of rTF in the assay was 44 fM. The thromboelastographic parameters of clotting time (CT), clot formation time (CFT) and maximum clot firmness (MCF) were recorded in accordance with the manufacturer's instructions. CT is defined as the time from the start of measurement to the start of clot formation. CFT is defined as the time from the start of clot formation until an amplitude of 20 mm is reached. MCF is the maximum difference in amplitude between the two traces during the assay.

[2] = mouse, 24 h; for percentage of initial amount of peptide remaining: plasma
in vitro = details: human, plasma
TFPI [3] = test: % Inhibition @ 2.5µM
TFPI [4] = test: % Inhibition @ 0.63µM
TFPI [5] = test: FXa Inhibition assay | EC50 (µM)
TFPI [6] = test: Extrinsic Tenase Inhibition assay | % Inhibition @ 2.5μM

Molecule	% Inhibition @ […] (TFPI [3]) [%]	% Inhibition @ […] (TFPI [4]) [%]	EC50 (TFPI [5]) [µM]	Extrinsic Tenase Inhibition assay | % Inhibition @ […] (TFPI [6]) [%]	also measured
CC(=O)N[C@@H](Cc1ccccc1)C(=O)N[C@@H](CCC(N)=O)C(=O)N[C@@H](CO)C(=O)N[C@@H](CCCCN)C(=O)N(C)CC(=O)N[C@@H](CC(N)=O)C(=O)N[C@H](C(=O)N[C@@H](Cc1ccccc1)C(=O)N[C@H](C(=O)N[C@@H](CC(=O)O)C(=O)NCC(=O)N[C@@H](Cc1ccc(O)cc1)C(=O)N[C@@H](Cc1ccccc1)C(=O)N[C@@H](CCC(=O)O)C(=O)N[C@@H](CCCNC(=N)N)C(=O)N[C@@H](CC(C)C)C(=O)N[C@@H](CCCNC(=N)N)C(=O)N[C@@H](C)C(=O)N[C@@H](CCCCN)C(=O)N[C@@H](CC(C)C)C(N)=O)C(C)C)C(C)C [JBT0717] (Ac-FQSK[Sar]NVFVDGYFERLRAKL-NH2)					Plasma Stability (half life in minutes) human: >2 h
CC(=O)N[C@@H](Cc1ccccc1)C(=O)N[C@@H](CCC(N)=O)C(=O)N[C@@H](CO)C(=O)N[C@@H](CCCCN)C(=O)N(C)CC(=O)N[C@@H](CC(N)=O)C(=O)N[C@H](C(=O)N[C@@H](Cc1ccccc1)C(=O)N[C@H](C(=O)N[C@@H](CC(=O)O)C(=O)NCC(=O)N[C@@H](Cc1ccc(O)cc1)C(=O)N[C@@H](Cc1ccccc1)C(=O)N[C@@H](CCC(=O)O)C(=O)N[C@@H](CCCNC(=N)N)C(=O)N[C@@H](CC(C)C)C(=O)NC(C)(C)C(=O)N[C@@H](C)C(=O)N[C@@H](CCCCN)C(=O)N[C@@H](CC(C)C)C(N)=O)C(C)C)C(C)C [JBT1584]					Plasma Stability (half life in minutes) human: >2 h
CC(=O)N[C@@H](Cc1ccccc1)C(=O)N[C@@H](CCC(N)=O)C(=O)N[C@@H](CO)C(=O)N[C@@H](CCCCN)C(=O)N1CCC[C@@H]1C(=O)N[C@@H](CC(N)=O)C(=O)N[C@H](C(=O)N[C@@H](Cc1cnc[nH]1)C(=O)N[C@H](C(=O)N[C@@H](CC(=O)O)C(=O)NCC(=O)N[C@@H](Cc1ccc(O)cc1)C(=O)N[C@@H](Cc1ccccc1)C(=O)N[C@@H](CCC(=O)O)C(=O)N[C@@H](CCCNC(=N)N)C(=O)N[C@@H](CC(C)C)C(=O)NC(C)(C)C(=O)N[C@@H](C)C(=O)N[C@@H](CCCCN)C(=O)N[C@@H](CC(C)C)C(N)=O)C(C)C)C(C)C [JBT1857]					coagulation parameters [1]: restored coagulation parameters in Hem A blood; also recorded: positively impacted blood coagulation parameters, but performed less efficiently than JBT1837; percentage of initial amount of peptide remaining in plasma [2]: < 10%; percentage of initial amount of peptide remaining [2]: Less than 5%; percentage of original amount of peptide remaining (human, plasma, 24 h): 27%; remaining at 24 h (in vitro): 27%
CCCCCC(=O)N[C@@H](Cc1ccccc1)C(=O)N[C@@H](CCC(N)=O)C(=O)N[C@@H](CO)C(=O)N[C@@H](CCCCN)C(=O)N1CCC[C@@H]1C(=O)N[C@@H](CSCNC(C)=O)C(=O)N[C@H](C(=O)N[C@@H](Cc1cnc[nH]1)C(=O)N[C@H](C(=O)N[C@@H](CC(=O)O)C(=O)N[C@H](C)C(=O)N[C@@H](Cc1ccc(O)cc1)C(=O)N[C@@H](Cc1ccccc1)C(=O)N[C@@H](CCC(=O)O)C(=O)N[C@@H](CCCNC(=N)N)C(=O)N[C@@H](CC(C)C)C(=O)NC(C)(C)C(=O)N[C@@H](C)C(=O)N[C@@H](CCCCN)C(=O)N[C@@H](CC(C)C)C(N)=O)C(C)(C)C)C(C)C [JBT2528, Hex-FQSKp-C(Acm)-VH-Tle-DaYFERL-Aib-AKL-NH2] (Hexanoyl-FQSK[dP]C(Acm)VH[Tle]D[dA]YFERL[Aib]AKL-NH2)					percentage of initial amount of peptide remaining [2]: 35%; remaining at 24 h (in vitro): 93%
Ac-FQSKKAVFVFGYFERLRAKL-NH2 (SEQ ID NO: 288) [JBT0696]	48	26	0.71		
Ac-FQSKaNVFVFGYFERLRAKL-NH2 (SEQ ID NO: 53) (Ac-FQSK[dA]NVFVFGYFERLRAKL-NH2; SMILES CC(=O)N[C@@H](Cc1ccccc1)C(=O)N[C@@H](CCC(N)=O)C(=O)N[C@@H](CO)C(=O)N[C@@H](CCCCN)C(=O)N[C@H](C)C(=O)N[C@@H](CC(N)=O)C(=O)N[C@H](C(=O)N[C@@H](Cc1ccccc1)C(=O)N[C@H](C(=O)N[C@@H](Cc1ccccc1)C(=O)NCC(=O)N[C@@H](Cc1ccc(O)cc1)C(=O)N[C@@H](Cc1ccccc1)C(=O)N[C@@H](CCC(=O)O)C(=O)N[C@@H](CCCNC(=N)N)C(=O)N[C@@H](CC(C)C)C(=O)N[C@@H](CCCNC(=N)N)C(=O)N[C@@H](C)C(=O)N[C@@H](CCCCN)C(=O)N[C@@H](CC(C)C)C(N)=O)C(C)C)C(C)C) [JBT0663]	81	60	0.29		
Ac-FQSKaNVFVTGYFARLRAKL-NH2 (SEQ ID NO: 54) (Ac-FQSK[dA]NVFVTGYFARLRAKL-NH2; SMILES CC(=O)N[C@@H](Cc1ccccc1)C(=O)N[C@@H](CCC(N)=O)C(=O)N[C@@H](CO)C(=O)N[C@@H](CCCCN)C(=O)N[C@H](C)C(=O)N[C@@H](CC(N)=O)C(=O)N[C@H](C(=O)N[C@@H](Cc1ccccc1)C(=O)N[C@H](C(=O)N[C@H](C(=O)NCC(=O)N[C@@H](Cc1ccc(O)cc1)C(=O)N[C@@H](Cc1ccccc1)C(=O)N[C@@H](C)C(=O)N[C@@H](CCCNC(=N)N)C(=O)N[C@@H](CC(C)C)C(=O)N[C@@H](CCCNC(=N)N)C(=O)N[C@@H](C)C(=O)N[C@@H](CCCCN)C(=O)N[C@@H](CC(C)C)C(N)=O)[C@@H](C)O)C(C)C)C(C)C) [JBT0668]	70	43	0.52		
Ac-SRYKWFCGMRDMKGTMSAVWVKF-NH2 (SEQ ID NO: 1160) [JBT0454]				0	
Ac-SRYKWFGM[CRDMKGTMSC]VWVKF-NH2 (SEQ ID NO: 1233) (Ac-SRYKWFGMCRDMKGTMSCVWVKF-NH2; disulfide 9-18; SMILES CSCC[C@H](NC(=O)CNC(=O)[C@H](Cc1ccccc1)NC(=O)[C@H](Cc1c[nH]c2ccccc12)NC(=O)[C@H](CCCCN)NC(=O)[C@H](Cc1ccc(O)cc1)NC(=O)[C@H](CCCNC(=N)N)NC(=O)[C@H](CO)NC(C)=O)C(=O)N[C@H]1CSSC[C@@H](C(=O)N[C@H](C(=O)N[C@@H](Cc2c[nH]c3ccccc23)C(=O)N[C@H](C(=O)N[C@@H](CCCCN)C(=O)N[C@@H](Cc2ccccc2)C(N)=O)C(C)C)C(C)C)NC(=O)[C@H](CO)NC(=O)[C@H](CCSC)NC(=O)[C@H]([C@@H](C)O)NC(=O)CNC(=O)[C@H](CCCCN)NC(=O)[C@H](CCSC)NC(=O)[C@H](CC(=O)O)NC(=O)[C@H](CCCNC(=N)N)NC1=O) [JBT0462]				0	
Ac-SRYKWF[CGMADMKGTMSC]VWVKF-NH2 (SEQ ID NO: 1079) (Ac-SRYKWFCGMADMKGTMSCVWVKF-NH2; disulfide 7-18; SMILES CSCC[C@@H]1NC(=O)CNC(=O)[C@@H](NC(=O)[C@H](Cc2ccccc2)NC(=O)[C@H](Cc2c[nH]c3ccccc23)NC(=O)[C@H](CCCCN)NC(=O)[C@H](Cc2ccc(O)cc2)NC(=O)[C@H](CCCNC(=N)N)NC(=O)[C@H](CO)NC(C)=O)CSSC[C@@H](C(=O)N[C@H](C(=O)N[C@@H](Cc2c[nH]c3ccccc23)C(=O)N[C@H](C(=O)N[C@@H](CCCCN)C(=O)N[C@@H](Cc2ccccc2)C(N)=O)C(C)C)C(C)C)NC(=O)[C@H](CO)NC(=O)[C@H](CCSC)NC(=O)[C@H]([C@@H](C)O)NC(=O)CNC(=O)[C@H](CCCCN)NC(=O)[C@H](CCSC)NC(=O)[C@H](CC(=O)O)NC(=O)[C@H](C)NC1=O) [JBT0446]				46	
